Assay results reported in patent publication US9604996B2 (Bayer Pharma Aktiengesellschaft, priority 2013, dated 2017).

Molecular target: T1, human adenosine A2b receptor (Homo sapiens, UniProt P29275)
T1 construct: expressed in transfected cells; host or cells: CHO-K1 (Chinese Hamster Ovary) with CRE-luciferase reporter
T1 sequence (P29275 1-332): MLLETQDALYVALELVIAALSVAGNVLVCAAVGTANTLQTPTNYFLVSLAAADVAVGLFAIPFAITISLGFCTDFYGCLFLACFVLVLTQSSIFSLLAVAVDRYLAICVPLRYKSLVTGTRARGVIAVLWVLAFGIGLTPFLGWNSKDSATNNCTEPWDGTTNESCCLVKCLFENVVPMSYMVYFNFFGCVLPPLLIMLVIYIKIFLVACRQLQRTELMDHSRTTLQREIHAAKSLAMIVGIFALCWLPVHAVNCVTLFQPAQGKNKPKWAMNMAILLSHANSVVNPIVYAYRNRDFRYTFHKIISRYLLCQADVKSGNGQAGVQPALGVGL
Test: Cellular reporter gene (CRE-luciferase) A2b receptor antagonist assay in recombinant CHO-K1 cells stimulated with NECA
Type: cell-based
Conditions: recombinant CHO-K1 cell line, co-incubation with EC50 concentration of NECA, 3 hours, in some cases means, rounded to two significant digits
Method in brief: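 CHO-K1 cells expressing human A2b receptor with a CRE-driven firefly luciferase reporter, co-incubated with test compound and NECA at its same-day EC50 concentration. Luminescence read 3 hours after NECA addition.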

IC50 [µM]	Structure (SMILES)
0.49	COCCn1c(=O)n(CC(F)(F)c2ccccc2)c(=O)c2c(C)c(C(=O)N3CCNC(=O)C3)sc21 [Example 94, 3-(2,2-Difluoro-2-phenylethyl)-1-(2-methoxyethyl)-5-methyl-6-[(3-oxopiperazin-1-yl)carbonyl]thieno[2,3-d]pyrimidine-2,4(1H,3H)-dione]
0.14	CCCn1c(=O)c2c(C)c(C(=O)N3CCNC(=O)C3)sc2n(CCC(F)(F)F)c1=O [Example 95, 5-Methyl-6-[(3-oxopiperazin-1-yl)carbonyl]-3-propyl-1-(3,3,3-trifluoropropyl)thieno [2,3-d]pyrimidine-2,4(1H,3H)-dione]
0.065	CCCn1c(=O)c2c(C)c(C(=O)N3CCNC(=O)C3)sc2n(CCOC(F)(F)F)c1=O [Example 96, 5-Methyl-6-[(3-oxopiperazin-1-yl)carbonyl]-3-propyl-1-[2-(trifluoromethoxy)ethyl]thieno[2,3-d]pyrimidine-2,4(1H,3H)-dione]
0.007	O=C1CN(C(=O)c2sc3c(c2C(F)F)c(=O)n(CCc2ccccc2)c(=O)n3CCC(F)(F)F)CCN1 [Example 97, 5-(Difluoromethyl)-6-[(3-oxopiperazin-1-yl)carbonyl]-3-(2-phenylethyl)-1-(3,3,3-trifluoropropyl)thieno[2,3-d]pyrimidine-2,4(1H,3H)-dione]
0.1	CCc1c(C(=O)N2CCNC(=O)C2)sc2c1c(=O)n(CC)c(=O)n2CCC(F)(F)F [Example 98, 3,5-Diethyl-6-[(3-oxopiperazin-1-yl)carbonyl]-1-(3,3,3-trifluoropropyl)thieno[2,3-d]pyrimidine-2,4(1H,3H)-dione]
0.01	Cc1c(C(=O)N2CCC(O)CC2)sc2c1c(=O)n(CCc1ccccc1)c(=O)n2CCOC(F)(F)F [Example 99, 6-[(4-Hydroxypiperidin-1-yl)carbonyl]-5-methyl-3-(2-phenylethyl)-1-[2-(trifluoromethoxy)ethyl]thieno[2,3-d]pyrimidine-2,4(1H,3H)-dione]
0.019	Cc1c(C(=O)N2CCC(O)CC2)sc2c1c(=O)n(CCC=C(F)F)c(=O)n2CCC(F)(F)F [Example 106, 3-(4,4-Difluorobut-3-en-1-yl)-6-[(4-hydroxypiperidin-1-yl)carbonyl]-5-methyl-1-(3,3,3-trifluoropropyl)thieno [2,3-d]pyrimidine-2,4(1H,3H)-dione]
0.0039	Cc1c(C(=O)N2CCC(C)(O)CC2)sc2c1c(=O)n(CCc1ccccc1)c(=O)n2CCOC(F)(F)F [Example 109, 6-[(4-Hydroxy-4-methylpiperidin-1-yl)carbonyl]-5-methyl-3-(2-phenylethyl)-1-[2-(trifluoromethoxy)ethyl]thieno[2,3-d]pyrimidine-2,4(1H,3H)-dione]
0.014	Cc1c(C(=O)N2CCC(O)(CO)CC2)sc2c1c(=O)n(CCc1ccccc1)c(=O)n2CCOC(F)(F)F [Example 110, 6-{[4-Hydroxy-4-(hydroxymethyl)piperidin-1-yl]carbonyl}-5-methyl-3-(2-phenylethyl)-1-[2-(trifluoromethoxy)ethyl]thieno[2,3-d]pyrimidine-2,4(1H,3H)-dione]
0.004	CCn1c(=O)c2c(C)c(C(=O)N3CCC(C)(O)CC3)sc2n(CCOC(F)(F)F)c1=O [Example 111, 3-Ethyl-6-[(4-hydroxy-4-methylpiperidin-1-yl)carbonyl]-5-methyl-1-[2-(trifluoromethoxy)ethyl]thieno[2,3-d]pyrimidine-2,4(1H,3H)-dione]
0.0079	CCn1c(=O)c2c(C)c(C(=O)N3CCC(O)(CC)CC3)sc2n(CCOC(F)(F)F)c1=O [Example 112, 3-Ethyl-6-[(4-ethyl-4-hydroxypiperidin-1-yl)carbonyl]-5-methyl-1-[2-(trifluoromethoxy)ethyl]thieno[2,3-d]pyrimidine-2,4(1H,3H)-dione]
0.07	CCn1c(=O)c2c(C)c(C(=O)N3CCC(O)(CC)CC3)sc2n(CCC(F)(F)F)c1=O [Example 113, 3-Ethyl-6-[(4-ethyl-4-hydroxypiperidin-1-yl)carbonyl]-5-methyl-1-(3,3,3-trifluoropropyl)thieno[2,3-d]pyrimidine-2,4(1H,3H)-dione]
0.032	CCn1c(=O)c2c(C(F)F)c(C(=O)N3CCC(O)CC3)sc2n(CCC(F)(F)F)c1=O [Example 122, 5-(Difluoromethyl)-3-ethyl-6-[(4-hydroxypiperidin-1-yl)carbonyl]-1-(3,3,3-trifluoropropyl)thieno[2,3-d]pyrimidine-2,4(1H,3H)-dione]
0.018	CCn1c(=O)c2c(C(F)F)c(C(=O)N3CCC(O)CC3)sc2n(CCOC(F)(F)F)c1=O [Example 123, 5-(Difluoromethyl)-3-ethyl-6-[(4-hydroxypiperidin-1-yl)carbonyl]-1-[2-(trifluoromethoxy)ethyl]thieno[2,3-d]pyrimidine-2,4(1H,3H)-dione]
0.037	CCn1c(=O)c2c(C(F)F)c(C(=O)N3CCC(C)(O)CC3)sc2n(CCC(F)(F)F)c1=O [Example 124, 5-(Difluoromethyl)-3-ethyl-6-[(4-hydroxy-4-methylpiperidin-1-yl)carbonyl]-1-(3,3,3-trifluoropropyl)thieno[2,3-d]pyrimidine-2,4(1H,3H)-dione]
0.048	CCn1c(=O)c2c(C(F)F)c(C(=O)N3CCC(O)(CC)CC3)sc2n(CCC(F)(F)F)c1=O [Example 125, 5-(Difluoromethyl)-3-ethyl-6-[(4-ethyl-4-hydroxypiperidin-1-yl)carbonyl]-1-(3,3,3-trifluoropropyl)thieno[2,3-d]pyrimidine-2,4(1H,3H)-dione]
0.084	CCn1c(=O)c2c(C(F)F)c(C(=O)N3CCC(O)(CO)CC3)sc2n(CCC(F)(F)F)c1=O [Example 126]
0.0095	CCn1c(=O)c2c(C(F)F)c(C(=O)N3CCC(C)(O)CC3)sc2n(CCOC(F)(F)F)c1=O [Example 127, 5-(Difluoromethyl)-3-ethyl-6-[(4-hydroxy-4-methylpiperidin-1-yl)carbonyl]-1-[2-(trifluoromethoxy)ethyl]thieno[2,3-d]pyrimidine-2,4(1H,3H)-dione]
0.013	CCc1c(C(=O)N2CCC(O)(CC)CC2)sc2c1c(=O)n(CC)c(=O)n2CCC(F)(F)F [Example 128, 3,5-Diethyl-6-[(4-ethyl-4-hydroxypiperidin-1-yl)carbonyl]-1-(3,3,3-trifluoropropyl)thieno[2,3-d]pyrimidine-2,4(1H,3H)-dione]
0.012	Cc1c(C(=O)N2CCNC(=O)C2)sc2c1c(=O)n(CCc1ccccc1)c(=O)n2CCOC(F)(F)F [Example 129, 5-Methyl-6-[(3-oxopiperazin-1-yl)carbonyl]-3-(2-phenylethyl)-1-[2-(trifluoromethoxy)ethyl]thieno[2,3-d]pyrimidine-2,4(1H,3H)-dione]
0.009	CCn1c(=O)c2c(C)c(C(=O)N3CCNC(=O)C3)sc2n(CCOC(F)(F)F)c1=O [Example 130, 3-Ethyl-5-methyl-6-[(3-oxopiperazin-1-yl)carbonyl]-1-[2-(trifluoromethoxy)ethyl]thieno[2,3-d]pyrimidine-2,4(1H,3H)-dione]
0.034	CCn1c(=O)c2c(C(F)F)c(C(=O)N3CCNC(=O)C3)sc2n(CCC(F)(F)F)c1=O [Example 131, 5-(Difluoromethyl)-3-ethyl-6-[(3-oxopiperazin-1-yl)carbonyl]-1-(3,3,3-trifluoropropyl)thieno[2,3-d]pyrimidine-2,4(1H,3H)-dione]
0.36	CCn1c(=O)c2c(C)c(C(=O)N3CCC(O)CC3)sc2n(CCC(C)C)c1=O [Example 134, 3-Ethyl-6-[(4-hydroxypiperidin-1-yl)carbonyl]-5-methyl-1-(3-methylbutyl)thieno[2,3-d]pyrimidine-2,4(1H,3H)-dione]
0.094	CCn1c(=O)c2c(C)c(C(=O)N3CCC(O)CC3)sc2n(CCCC(F)(F)F)c1=O [Example 135, 3-Ethyl-6-[(4-hydroxypiperidin-1-yl)carbonyl]-5-methyl-1-(4,4,4-trifluorobutyl)thieno[2,3-d]pyrimidine-2,4(1H,3H)-dione]
0.31	CCn1c(=O)c2c(C)c(C(=O)N3CCC(O)CC3)sc2n(CCC(F)=C(F)F)c1=O [Example 136, 3-Ethyl-6-[(4-hydroxypiperidin-1-yl)carbonyl]-5-methyl-1-(3,4,4-trifluorobut-3-en-1-yl)thieno[2,3-d]pyrimidine-2,4(1H,3H)-dione]
0.012	CC(C)Cn1c(=O)c2c(C(F)F)c(C(=O)N3CCC(O)CC3)sc2n(CCOC(F)(F)F)c1=O [Example 137, 5-(Difluoromethyl)-6-[(4-hydroxypiperidin-1-yl)carbonyl]-3-isobutyl-1-[2-(trifluoromethoxy)ethyl]thieno[2,3-d]pyrimidine-2,4(1H,3H)-dione]
0.015	CC(C)Cn1c(=O)c2c(C(F)F)c(C(=O)N3CCC(C)(O)CC3)sc2n(CCOC(F)(F)F)c1=O [Example 138, 5-(Difluoromethyl)-6-[(4-hydroxy-4-methylpiperidin-1-yl)carbonyl]-3-isobutyl-1-[2-(trifluoromethoxy)ethyl]thieno[2,3-d]pyrimidine-2,4(1H,3H)-dione]
0.039	CC(C)Cn1c(=O)c2c(C(F)F)c(C(=O)N3CCC(O)CC3)sc2n(CCC(F)(F)F)c1=O [Example 139, 5-(Difluoromethyl)-6-[(4-hydroxypiperidin-1-yl)carbonyl]-3-isobutyl-1-(3,3,3-trifluoropropyl)thieno[2,3-d]pyrimidine-2,4(1H,3H)-dione]
